Experimental data published in patent US20160341734A1, “USE OF FLUOROQUINOLONE ANTIBIOTICS” (POSTECH ACADEMY-INDUSTRY FOUNDATION, priority 2015, published 2016).
Structures can show the parent of a compound that is named as a salt.

Legend:
[1] = two-photon excitation and emission spectrum of the antibiotics (femtosecond laser); assay type: physicochemical
Description: 3A illustrates an excitation spectrum of hydrochloride moxifloxacin and gatifloxacin. Here, an X axis represents a wavelength (nm) of a femtosecond laser light source used in the experiment, and a degree (a.u.) of two-photon excited fluorescence (TPF) at 700 nm to 800 nm which is a measuring range of a femtosecond laser wavelength is illustrated as a Y axis. Through the graph, it can be seen that hydrochloride moxifloxacin and gatifloxacin may represent fluorescent signals in the light source having a range of 700 nm to 800 nm which is a near-infrared wavelength. Further, in the case where the wavelength of the light source is 700 nm as shown in the intensity of the excited fluorescence graph of the Y axis, it can be seen that a fluorescent signal stronger than other wavelengths is shown. FIG. 3B illustrates an emission spectrum representing a fluorescence expression degree of each antibiotic when the femtosecond laser is applied to hydrochloride moxifloxacin and gatifloxacin. The X axis represents a wavelength (nm) and the Y axis represents the degree (a.u.) of the TPF. In the graph, in the hydrochloride moxifloxacin and the gatifloxacin, it can be seen that the fluorescent signals having wavelengths of 450 nm to 550 nm are frequently expressed and the wavelength of about 520 nm is expressed most strongly.

[2] = single-photon fluorescence, ultraviolet-ray area; cited from earlier work
[3] = system: corneal cells of the mouse; experiment: multi-photon fluorescence of corneal cells after dropping the antibiotic in the eye; assay type: in vivo
Experimental: Blab/c female mice after five or six weeks, gatifloxacin, hydrochloride moxifloxacin, and a multi-photon microscope including a biaxial scanner (a galvano scanner of x axis and a galvano scanner of y axis) to be used by a point scanning method were prepared.
In this Experimental Example, a two-photon microscope using a femtosecond laser as a light source was used and the multi-photon fluorescence was equally measured under the following condition throughout an experimental process.
Excitation wavelength: 780 nm for vigamox (moxifloxacin)
In order to compare fluorescence expression of hydrochloride moxifloxacin with auto-fluorescence expression of the corneal cells of the mouse, the corneal cells of the mouse which are not applied with hydrochloride moxifloxacin were first photographed.
The Blab/c mouse to be used in the experiment was anesthetized and then fixed to an eye holder for photographing the eye, and photographed by the two-photon microscope. Laser power was set as 30.8 mW, and in this case, the intensity of auto-fluorescence of the photographed mouse cornea was recorded.
In order to measure the fluorescence expression degree of the mouse cornea by vigamox (hydrochloride moxifloxacin), hydrochloride moxifloxacin of 10 μl was dropped in a left eye of the mouse and an eyelid was closed for 30 seconds. […]

pseudomonas = experiment: multi-photon fluorescence in bacteria; assay type: cell-based
Experimental: (§1) Bacteria (pseudomonas and staphylococcus) used in the experiment, hydrochloride moxifloxacin, and a biaxial scanner (a galvano scanner of x axis and a galvano scanner of y axis) to be used by a point scanning method were prepared.
(§2) In this Experimental Example, a two-photon microscope using a femtosecond laser as a light source was used, and the multi-photon fluorescence was equally measured under the following condition throughout an experimental process.
(§3) Excitation wavelength: 780 nm for vigamox(moxifloxacin)
(§4) The bacteria were incubated under the following condition.
pseudomonas-nutrient broth (nutrient medium)
(§5) 1. A bacteria stock was put in a medium of 3 mL and cultured after overnight incubation (37° C. and 200 rpm).
(§6) 2. Here, 0.03 mL of the cultured bacteria stock was taken and put in a fresh medium of 3 mL, and then cultured (37° C. and 200 rpm) up to OD600=1.5.
3. […]
(§7) In order to compare fluorescence expression of hydrochloride moxifloxacin with auto-fluorescence expression of bacteria, fluorescence expression of bacteria (pseudomonas and staphylococcus) which are not applied with hydrochloride moxifloxacin was first photographed and intensity of the auto-fluorescence expression was recorded. Subsequently, the hydrochloride moxifloxacin was administered to the medium and then the intensity of the fluorescence expression after the incubation time was measured.

staphylococcus = experiment: multi-photon fluorescence in bacteria; assay type: cell-based
Experimental: as §1, §2, §3, §4
staphylococcus-lysogeny broth (LB medium)
as §5, §6
3. […]
as §7

SMILES	emission wavelength expressed most strongly ([1]; two-photon emission spectrum)	light source wavelength with fluorescent signal stronger than other wavelengths ([1]; two-photon excitation spectrum, 700 nm to 800 nm measured) [nm]	excited light expressing the fluoroquinolone antibiotics (wavelength) [2] [nm]	fluorescence intensity in corneal endothelium layer versus auto-fluorescence ([3]; corneal endothelium layer, FIGS. 5E, 6E vs 4E)	intensity of fluorescence expression in cornea versus auto-fluorescence ([3]; laser power 30.8 mW, same as auto-fluorescence)	difference in signal intensity after versus before administering (pseudomonas)	fluorescence signal intensity after administering (pseudomonas; FIG. 18, before administering 9.5334 a.u.) [a.u.]	difference in signal intensity after versus before administering (staphylococcus) [times]	fluorescence signal intensity after administering (staphylococcus; FIG. 18, before administering 10.4277 a.u.) [a.u.]
COc1c(N2CCNC(C)C2)c(F)cc2c(=O)c(C(=O)O)cn(C3CC3)c12 (stereo not drawn) [gatifloxacin]	about 520 nm	700	292	higher than the fluorescence intensity of the auto-fluorescence expression	much larger than that of the auto-fluorescence expression				
COc1c(N2C[C@@H]3CCCN[C@@H]3C2)c(F)cc2c(=O)c(C(=O)O)cn(C3CC3)c12 [hydrochloride moxifloxacin, moxifloxacin]						about 10 times	101.2196	10	110.3189
